Several values for one entry are separate records, joined by “and”; a condition that tells them apart may be missing. Identical values can stand only once.
How the values were obtained:
[1] = Leucocyte (cellular) drug levels 2 and 24 h after injection; type: in vivo, human; settings: for Leucocyte MMRDX levels, median: n = 6, per l cell volume
Description: (§1) British Jourmal of Cancer (1998) 77(1), 139-146 ? 1998 Cancer Research Campaign Broad phase 11 and pharmacokinetic study of methoxy-morpholino doxorubicin (FCE 23762-MMRDX) in non-small-cell lung cancer, renal cancer and other solid tumour patients M Bakker', JP Droz2, AR Hanauske3, J Verweij4, AT van Oosterom5, HJM Groen', MA Pacciarini6, L Domenigoni6, F van Weissenbruch', E Pianezzola6 and EGE de Vries' 'University Hospital Groningen, The Netherlands; 2Centre L6on Berard, Lyon, France; 3Med. […] Patients received a maximum of six cycles. […] Limitations of the clinical value of anthracyclines are their toxicity profile, especially irreversible, dose-related cardiotoxicity, and intrinsic or acquired tumour resis- tance. Various mechanisms play a role in tumour cell resistance to anthracyclines, including overexpression of drug efflux pumps such as P-glycoprotein, decreased levels of the target enzyme topoisomerase II, and an increase in cellular detoxifying capacity (Kaye and Merry, 1985; Deffie et al, 1989; De Jong et al, 1990; Ford and Hait, 1990; Meijer et al, 1990; Zaman et al, 1994). The morpholinyl anthracyclines have been developed in the course of research aimed at identifying new anthracyclines with at least partially novel modes of action in addition to activity against resis- tant tumours (Acton et al, 1984). […] Box 30.001, 9700 RB Groningen, The Netherlands (Figure 1).

solid tumour patients = system: solid tumour patients; design: method as in Vasey et al, 1995; settings: i.v. bolus every 3 weeks, phase I study; ref Vasey et al, 1995; cited from earlier work
[2] = system: left ventricular ejection fraction (LVEF); assay: Cardiac toxicity: LVEF by MUGA scan or echocardiography; type: in vivo, human
Description: as §1

[3] = system: NSCLC, renal cell cancer, head and neck cancer, cervix carcinoma, ACUP; assay: Tumour response according to WHO criteria; type: in vivo, human
Description: as §1

[4] = system: metastatic or unresectable solid tumour patients; assay: Non-haematological toxicity (CTC grading) in broad phase II study; type: in vivo, human; settings: for Percentage of cycles with alopecia / Percentage of cycles with diarrhoea / Percentage of cycles with fatigue/malaise / Percentage of cycles with liver toxicity, ALAT / Percentage of cycles with liver toxicity, ASAT / Percentage of cycles with nausea / Percentage of cycles with stomatitis / Percentage of cycles with vomiting / Percentage of cycles with liver toxicity, bilirubin: 132 evaluable cycles
Description: as §1

[5] = system: solid tumours in animal models; design: method as in Grandi et al, 1990; Ripamonti et al, 1992; settings: similar activity by intraperitoneal, i.v. or oral route; ref Grandi et al, 1990; Ripamonti et al, 1992; cited from earlier work
[6] = Urinary excretion up to 96 h; type: in vivo, human
Description: as §1

[7] = system: metastatic or unresectable solid tumour patients; assay: Haematological toxicity (CTC grading, blood cell counts) in broad phase II study; type: in vivo, human; settings: for Cycles (%) with anaemia / Cycles (%) with leucopenia / Cycles (%) with neutropenia / Cycles (%) with thrombocytopenia: n = 126 cycles; for Median platelet nadir: 26 patients who received at least three cycles
Description: as §1

[8] = Plasma pharmacokinetics, cycle 1 (HPLC with fluorescence detection); type: in vivo, human
Description: as §1

[9] = out of 131 cycles, despite intensive prophylactic antiemetic treatment
[10] = 132 cycles, 48 patients, 1.5 mg m-2 i.v. bolus every 4 weeks
[11] = CTC Grade I, 1.5 mg m-2 i.v. bolus every 4 weeks
[12] = CTC Grade II, 1.5 mg m-2 i.v. bolus every 4 weeks
[13] = CTC Grade III, 1.5 mg m-2 i.v. bolus every 4 weeks
[14] = CTC Grade IV, 1.5 mg m-2 i.v. bolus every 4 weeks
[15] = plasma, three-compartmental model, first cycle, 11 patients, 1.5 mg m-2 i.v.

## 13-dihydro-3'-deamino-3'-[2(S)-methoxy-4-morpholinyl] doxorubicin [13-dihydro metabolite]
[1]; leucocytes
  Intracellular levels as % of total MMRDX cellular levels: ≤ 5%

## COc1cccc2c1C(=O)c1c(O)c3c(c(O)c1C2=O)C[C@@](O)(C(=O)CO)C[C@@H]3O[C@H]1C[C@H](N2CCO[C@H](OC)C2)[C@H](O)[C@H](C)O1 [MMRDX, methoxymorpholino-doxorubicin]
Solid tumour patients
  Maximum-tolerated dose: 1.5 mg m-2
[2]; 26 patients evaluable for cardiac toxicity
  Patients with left ventricular ejection fraction reduced >= 15%: two
[2]; one patient with head and neck cancer, after three cycles, cumulative dose 4.5 mg m-2
  Decrease in LVEF: 15%
[2]; overall conclusion of the study
  Cardiotoxicity: No clear signs of cardiotoxicity were observed
[2]; second patient (NSCLC), echocardiography, after four cycles, cumulative dose 6 mg m-2
  Decrease in LVEF: 17%
[3]; NSCLC (20 evaluable patients) and renal cell cancer (18 evaluable patients)
  Efficacy in NSCLC and renal cell cancer: ineffective
[3]; NSCLC patient with retroperitoneal metastases, forty-three patients evaluable for tumour response
  Patients with partial response: One
[3]; forty-three patients evaluable
  Patients with progressive disease: Twenty-five
  Patients with stable disease: 17 patients
[3]; one NSCLC patient
  Duration of partial response: 17 weeks
[4]; 132 cycles
  Late and prolonged nausea > or = grade II, % of cycles: 34%
  Vomiting > or = grade II, % of cycles: 39%
[4]; % of cycles
  Cycles with transient elevation of ALAT: 71%
  Cycles with transient elevation of ASAT: 64%
[4]; CTC Grade I
  Percentage of cycles with alopecia: 10%
  Percentage of cycles with diarrhoea: 7%
  Percentage of cycles with fatigue/malaise: 24%
  Percentage of cycles with liver toxicity, ALAT: 37%
  Percentage of cycles with liver toxicity, ASAT: 46%
  Percentage of cycles with nausea: 43%
  Percentage of cycles with stomatitis: 11%
  Percentage of cycles with vomiting: 24%
[4]; CTC Grade II
  Percentage of cycles with alopecia: 1.5%
  Percentage of cycles with diarrhoea: 1%
  Percentage of cycles with fatigue/malaise: 22%
  Percentage of cycles with liver toxicity, ALAT: 27%
  Percentage of cycles with liver toxicity, ASAT: 16%
  Percentage of cycles with liver toxicity, bilirubin: 12%
  Percentage of cycles with nausea: 27%
  Percentage of cycles with stomatitis: 1%
  Percentage of cycles with vomiting: 30%
[4]; CTC Grade III
  Percentage of cycles with diarrhoea: 1%
  Percentage of cycles with fatigue/malaise: 7%
  Percentage of cycles with liver toxicity, ALAT: 7%
  Percentage of cycles with liver toxicity, ASAT: 2%
  Percentage of cycles with liver toxicity, bilirubin: 0%
  Percentage of cycles with nausea: 7%
  Percentage of cycles with stomatitis: 1%
  Percentage of cycles with vomiting: 4%
[4]; CTC Grade IV
  Percentage of cycles with diarrhoea: 0%
  Percentage of cycles with fatigue/malaise: 5%
  Percentage of cycles with liver toxicity, ALAT: 0%
  Percentage of cycles with liver toxicity, ASAT: 0%
  Percentage of cycles with liver toxicity, bilirubin: 1%
  Percentage of cycles with stomatitis: 0%
  Percentage of cycles with vomiting: 5%
[4]; considered as drug-related
  Fatigue grade I-III, % of cycles: 53%
[4]; in vivo
  Alopecia grade I or II, % of cycles: 11%
  Cumulative liver toxicity: No cumulative liver toxicity was observed
  Cycles with CTC toxicity >= grade I of ALAT: 87 cycles
  Cycles with CTC toxicity >= grade I of ASAT: 78 cycles
  Cycles with CTC toxicity >= grade I of bilirubin: 15 cycles
  Cycles with CTC toxicity >= grade III of ALAT: nine
  Cycles with CTC toxicity >= grade III of ASAT: two
  Cycles with CTC toxicity >= grade III of bilirubin: one
  Grade I-II diarrhoea, % of cycles: 8%
  Grade I-II stomatitis, % of cycles: 11%
  Local phlebitis at the injection site, renal toxicity, neurotoxicity: Neither local phlebitis at the injection site nor renal or neuro- toxicity were observed
  Median day of onset of nausea: 3 (range 1-17) day
  Median day of onset of vomiting: 3 (range 1-22) day
  Patients hospitalized for nausea/vomiting: Five
[4]; in vivo, iv
  Nausea and vomiting grade III-IV, % of cycles: 9%
[4]; lasting approximately one week
  Day of maximum transient elevations of ASAT and ALAT: 8 days
[4]; only one grade II
  Patients with alopecia grade I or II: Nine
[4]; [9]
  Cycles with nausea: 100 cycles
  Cycles with vomiting: 82 cycles
[4]; printed '> grade III/IV', 132 cycles
  Transient transaminases elevation grade III/IV, % of cycles: 7%
[4]; range 1-7
  Median hospitalization duration for nausea/vomiting: 4 days
[4]; range 1-28
  Median duration of vomiting: 3 days
[4]; range 1-38
  Median duration of nausea: 7 days
[4]; range 8-26
  Median day of recovery of ASAT to normal values: 15 days
[4]; range 8-36
  Median day of recovery of ALAT to normal values: 15 days
[5]
  Effectiveness in solid tumours in animal models: as effective as doxorubicin
[6]; in vivo
  Renal clearance: about 1.8 l h-1
[6]; urine collection up to 96 h, nine patients
  Urinary excretion of the unchanged drug, % of the administered dose: 2%
[1]; 2 h after infusion
  Mean leucocyte concentration relative to corresponding plasma concentration: 650 fold
  Leucocyte MMRDX levels, median: 414 µg/L
[1]; 24 h after infusion
  Mean leucocyte concentration relative to corresponding plasma concentration: 400 fold
  Leucocyte MMRDX levels, median: 174 µg/L
[7]; 47 patients evaluable for haematological toxicity
  Patients hospitalized for neutropenic fever: Seven
[7]; [10]
  CTC grade III/IV neutropenia, % of cycles: 27%
  CTC grade III/IV thrombocytopenia, % of cycles: 12%
[7]; [11]
  Cycles (%) with anaemia: 37%
  Cycles (%) with leucopenia: 17%
  Cycles (%) with neutropenia: 13%
  Cycles (%) with thrombocytopenia: 11%
[7]; [12]
  Cycles (%) with anaemia: 31%
  Cycles (%) with leucopenia: 23%
  Cycles (%) with neutropenia: 20%
  Cycles (%) with thrombocytopenia: 6%
[7]; [13]
  Cycles (%) with anaemia: 5%
  Cycles (%) with leucopenia: 19%
  Cycles (%) with neutropenia: 18%
  Cycles (%) with thrombocytopenia: 6%
[7]; [14]
  Cycles (%) with anaemia: 0%
  Cycles (%) with leucopenia: 6%
  Cycles (%) with neutropenia: 9%
  Cycles (%) with thrombocytopenia: 6%
[7]; Cycle 1, n=47
  Median (range) nadir haemoglobin: 110(69-147) g l-1
  Median (range) nadir leucocytes: 3.0 (0.1-9.1) x 109 l-1
  Median (range) nadir neutrophils: 1.4 (<0.1-5.8) x 109 l-1
  Median (range) nadir platelets: 178 (8-449) x 109 l-1
[7]; Cycles 2-6, n=80
  Median (range) nadir platelets: 117 (9-372) x 109 l-1
[7]; Cycles 2-6, n=81
  Median (range) nadir neutrophils: 1.7 (< 0.1-6.8) x 109 l-1
[7]; Cycles 2-6, n=82
  Median (range) nadir haemoglobin: 103 (69-153) g l-1
  Median (range) nadir leucocytes: 3.0 (0.1-9.8) x 109 l-1
[7]; cycle 1
  Median platelet nadir: 1.78e+11 L⁻¹
[7]; cycle 2
  Median platelet nadir: 1.45e+11 L⁻¹
[7]; cycle 3
  Median platelet nadir: 1.08e+11 L⁻¹
[7]; cycle 4
  Median platelet nadir: 1.06e+11 L⁻¹
[7]; cycle 5
  Median platelet nadir: 9e+10 L⁻¹
[7]; cycle 6
  Median platelet nadir: 1.17e+11 L⁻¹
[7]; day 14 of cycle 2, grade IV neutropenia
  Septic death: one
[7]; day of cycle
  Day of platelet nadir: 22 day and 22 (range 7-36) day
  Median day of neutrophil nadir: 22 day and 22 (range 6-36) day
[7]; excluding admission for blood cell transfusion
  Total number of hospital admissions for haematological toxicity: eight
[7]; in eight patients
  Cycles with dose adjustments for haematological toxicity: 19%
[7]; in vivo
  Cycles delayed for haematological toxicity: 29%
[7]; range 1-14
  Median duration of grade IV neutropenia: 7 days
[7]; range 1-20
  Median time to recovery from platelet nadir to > 100 x 109 l-1: 7 days
[7]; range 2-22
  Median time to recovery from neutrophil nadir to > 2 x 109 l-1: 7 days
[7]; range 3-19
  Median duration of grade IV thrombocytopenia: 11 days
[8]; epirubicin value ref Camaggi et al, 1988
  Terminal half-life relative to epirubicin t1/2,z: 1.6 fold
[8]; on the basis of AUC calculated up to infinite time
  Interindividual coefficient of variation: about 20%
[8]; plasma, 11 patients, 1.5 mg m-2 i.v.
  Plasma clearance, mean ± s.d.: 37.2 +/- 7.3 l h-1 m-2
[8]; plasma, n = 11, 1.5 mg m-2 i.v., linear trapezoidal rule
  AUC0-infinity, mean ± s.d.: 20.4 ± 6.2 ng·h/mL
[8]; plasma, three-compartmental model, 11 patients, 1.5 mg m-2 i.v.
  Half-life of the first phase: 4 min
[8]; [15]
  t1/2,beta (second phase), mean ± s.d.: 2.4 h
  t1/2,gamma (third phase), mean ± s.d.: 49 h
